Data: patent US9138398B2, “Cationic alcohols and uses thereof” (Living Proof, Inc., priority 2009, dated 2015)

Assay: Contact angle measurements of hair fiber (Cahn DCA-312 tensiometer)
Settings: 1.5% Example 15 in conditioner C2, 20 cycles, versus placebo conditioner C1
Text: As described previously, improving upon benefits such as hydrophobicity, shine and tactile properties leads to the perception of healthier, more conditioned hair. Contact angle measurement has proven to be a viable method to measure the degree of hydrophobicity of hair. In principle, it measures the angle at the point of contact of a liquid with a surface. If the surface is highly hydrophobic (such as virgin, untreated hair), the angle of the water droplet at the interface would be greater than 90°. Likewise, a hydrophilic surface would cause the water droplet to fall flat, and the angle would be close to 0°.
Virgin black hair tresses (1.5 g each, from International Hair Importers) were bleached once with a homogeneous mixture of Clairol Pure White 20V hydrogen peroxide solution (45 ml) and Clairol bleach powder Ultra Concentrate BW2000 (6.75 g) for 10 min at 50° C. The tresses were shampooed with a 7.5% Sodium Lauryl Sulfate solution twice and air-dried for 24 h. […]
Contact angle measurements were performed with a Cahn DCA-312 tensiometer. […] The water surface tension was determined with a platinum DuNuoy ring (Cat 14-812-5) to be 70.6 mN/m. […]
The hair fiber diameter was measured with a precision micrometer (Mitutoyo Cat 293-761-30). […] The advancing and receding contact angles were measured for each sample, with runs performed in triplicate.

**Q.** With `C[N+](C)(CC[N+](C)(C)CC(O)COCC(F)(F)C(F)F)CC(O)COCC(F)(F)C(F)F` (stereo not shown) [Example 15] as the compound, how does the “Change of contact angle of bleached hair (hydrophobicity), in words” value read?
**A.** significantly increased the contact angle
